Like-named read-outs stand apart in the source and are kept apart here.
Columns and labels:
[1] = system: Bst 2.0 DNA polymerase; assay: Homopolymer assays of nucleotide analogs (Example 10); assay type: biochemical
Description: A homopolymer assay was performed to investigate the effectiveness of E-dCTP and P-dUTP as nucleotide analogs of dCTP. 50 μl solutions containing a template nucleic acid molecule and primer and Bst 2.0 DNA polymerase are placed in a microplate reader and the fluorescence of the solution is measured in kinetic mode. A fluorescein attached to an oligonucleotide (indicated with a * in FIG. 7) was quenched in the substrate due to the proximity of complementary G bases. Addition of dCTP and/or dCTP analogs causes extension of the 3′ end of the primer, formation of double-stranded DNA, and unquenching of the fluorescein. The fluorescence increases with the addition of multiple nucleotides.
Additional homopolymer assays were performed according to the procedure outlined in Example 8 using different nucleotides and nucleotide analogs.
To test for dUTP or TTP incorporation, oligo 332 was used as a template and oligo 221L was used as a primer. To test for dCTP incorporation, oligo 333 was used as a template and oligo 221L was used as a primer. To test for dGTP incorporation, oligo 334 was used as a template and oligo 221L was used as a primer. To test for dATP incorporation, hairpin oligo 221 was used as both a primer and template.

[2] = system: Bst DNA polymerase v.2.0; assay: Flow cytometry assay: tolerance of dye-labeled dUTP* compared to dUTP analogs (Example 7); assay type: biochemical; conditions: for Tolerance: tolerance of dUTP* compared to the named dUTP^0
Description: A solution of biotinylated template (2 microliters (μL) of 100 μM) and dye-labeled primer (4 μL of 100 μM) were combined in annealing buffer (40 μL; Tris (10 millimolar (mM)), EDTA (1 mM), NaCl (100 mM)). The resulting solution was heated to 95° C. and allowed to slowly cool to room temperature. A portion of this solution (8 μL) was mixed with streptavidin-labeled magnetic beads (4 μL of Invitrogen Dynabeads™ MyOne™ Streptavidin C1, 10 milligrams/milliliter (mg/mL); washed and eluant removed) and 2× bead wash buffer (8 μL; 10 mM Tris, pH 7.5, 1 mM EDTA, 2 M NaCl, 0.01% Triton X-100). After washing with TET solution (10 mM Tris, 1 mM EDTA, 0.05% Triton X-100) the beads were treated with Bst DNA polymerase v.2.0 (8 μL of 8 units (U)/μL; New England Biolabs) for five minutes. The excess enzyme was removed by washing with TET and the beads were suspended in 1×DNA polymerase buffer solution (20 mM Tris, pH 8, 10 mM NaCl, 2 mM MgCl2, 0.01% Triton X-100). The sequence of the biotinylated template was /52 Bio//iSp18/[…] […] (SEQ ID NO: 12), where “5” is indicative of the 5′-end of the oligo, 2-Bio indicates dual biotin, and iSP18 indicates a PEG spacer. […] […] (SEQ ID NO: 13), where “5” indicates the 5′-end of the oligo and JOE indicates a fluorescent dye attached to the oligo.
Next, a portion of the suspended magnetic beads (10 μL) were removed and placed in a PCR tube. A solution of nucleotides (10 μL) was added to the tube and the tube incubated for 40 seconds (s) at 50° C. The enzyme reaction was stopped with the addition of 5 μL of 50 mM EDTA. The beads were washed with 2×100 μL TET and resuspended in 20 μL TET. A portion of the bead solution (1 μL) was added to TE (200 μL) and the beads examined for red fluorescence on a flow cytometer (BD Accuri™, APC channel). The eluant of the remaining beads was removed and 40 μL of 95:5 formamide:10 mM EDTA was added to the beads. A portion of the formamide solution (1 μL) was added to 40 μL 95:5 formamide EDTA. The solutions were examined by capillary electrophoresis (CE) on an ABI 3730 instrument and the peaks identified and quantitated by peak height. The experimental protocol is summarized schematically in FIG. 2.
Tolerance was measured at two molar fractions, […] and 0.05, for each of the four dUTP analogs.

[3] = system: hairpin oligo; assay: Kinetic assay using hairpin oligos (Example 7); assay type: biochemical
Description: A kinetic assay using hairpin oligos was also performed to determine the rate of incorporate of an unnatural nucleotide and a natural nucleotide following the unnatural nucleotide. […] Incorporation of a T or U analog unquenched a fluorescein in the hairpin oligo. Following incorporation of the T or U analog, a mixture of C and A was added, which further unquenched the dye.

[4] = system: DNA polymerase; conditions: for peak height (red fluorescence on the gel): dUTP* only (Fr = 1.0) or dUTP*/named dUTP^0
Description: A gel assay was also performed to examine context-dependent incorporation. […] The primers had different lengths poly-T tails to enable separation on a polyacrylamide gel. […] Excess nucleotides and nucleotide analogs were washed away and the sample was loaded onto a gel.
The red fluorescence on the gel was analyzed with ImageJ. The peak heights for the extension reactions for each primer with Fr=1.0 was measured. […] The ratios of the peak heights for each pair were calculated (“norm.”). […] The metric in this experiment was context, as defined as: C=(Maximum signal−minimum signal)/(average signal).

[5] = Natural Nucleotide C (dCTP = 1), template oligo 333, primer 221L
[6] = Natural Nucleotide A (dATP = 1), hairpin oligo 221
[7] = Natural Nucleotide T (TTP = 1), template oligo 332, primer 221L
[8] = Natural Nucleotide G (dGTP = 1), template oligo 334, primer 221L

Nc1nc(=O)n([C@H]2C[C@H](O)[C@@H](COP(=O)(O)OP(=O)(O)OP(=O)(O)O)O2)cc1C=O [5-formyl-dCTP, 5-formyl-2′-deoxycytidine 5′triphosphate]
Relative Rate in Homopolymer Assay [1, 5]: <<1

Nc1ncnc2c1nc(Br)n2[C@H]1C[C@H](O)[C@@H](COP(=O)(O)OP(=O)(O)OP(=O)(O)O)O1 [Bromo-dATP, bromo-deoxyadenosine triphosphate]
Relative Rate in Homopolymer Assay [1, 6]: >1

O=c1[nH]c(=O)n([C@H]2C[C@H](O)[C@@H](COP(=O)(O)OP(=O)(O)OP(=O)(O)O)O2)cc1F [5-Fluoro-dUTP, 5-fluoro-2′-deoxyuridine 5′triphosphate]
Relative Rate in Homopolymer Assay [1, 7]: <1

C#CCNc1cn([C@H]2C[C@H](O)[C@@H](COP(=O)(O)OP(=O)(O)OP(=O)(O)O)O2)c(=O)[nH]c1=O [5-Propargylamino-dUTP, 5-proparylamino-2′-deoxyuridine 5′triphosphate]
Relative Rate in Homopolymer Assay [1, 7]: <<1

iodo-2′-deoxyguanosine-5′-triphosphate [Iodo-dGTP]
Relative Rate in Homopolymer Assay [1, 8]: >1

Nc1nc(=O)n([C@H]2C[C@H](O)[C@@H](COP(=O)(O)OP(=O)(O)OP(=O)(O)O)O2)cc1CO [5-Hydroxymethyl-dCTP, 5-ydroxymethyl-2′-deoxycytidine 5′triphosphate]
Relative Rate in Homopolymer Assay [1, 5]: <<1

CC#Cc1cn([C@H]2C[C@H](O)[C@@H](COP(=O)(O)OP(=O)(O)OP(=O)(O)O)O2)c(=O)[nH]c1=O [P-dUTP, 5-propynyl-2′-deoxyuridine 5′triphosphate]
performance as a substrate compared with TTP (in words) ([2]; from tolerance for the labeled nucleotide at both molar fractions): outperforms TTP as a substrate | Apparent fraction ([2]; molar fraction dUTP* 0.05): 0.032 | Red signal ([2]; molar fraction dUTP* 0.05, rest the named dUTP^0): 1,600 | Apparent fraction ([2]; molar fraction dUTP* 0.5): 0.32 | Red signal ([2]; molar fraction dUTP* 0.5, rest the named dUTP^0): 16,000 | Tolerance ([2]; molar fraction dUTP* 0.05): 0.6 | Tolerance ([2]; molar fraction dUTP* 0.5): 0.6 | incorporation of dCTP and dATP after the dUTP analog ([3]; mixture of C and A added after T or U analog): rapid | initial incorporation of dUTP analog ([3]; unquenching of fluorescein in hairpin oligo): rapid | Relative Rate in Homopolymer Assay [1, 7]: >1 | Norm. (ratio of peak height dUTP*/dUTP^0 to Fr=1.0) ([4]; Peak 1): 1.3 | peak height (red fluorescence on the gel) ([4]; Peak 1 (primer)): 55 | Norm. (ratio of peak height dUTP*/dUTP^0 to Fr=1.0) ([4]; Peak 2): 1.4 | peak height (red fluorescence on the gel) ([4]; Peak 2 (primer)): 54 | Norm. (ratio of peak height dUTP*/dUTP^0 to Fr=1.0) ([4]; Peak 3): 1.0 | peak height (red fluorescence on the gel) ([4]; Peak 3 (primer)): 27 | Norm. (ratio of peak height dUTP*/dUTP^0 to Fr=1.0) ([4]; Peak 4): 1.1 | peak height (red fluorescence on the gel) ([4]; Peak 4 (primer)): 36 | Norm. (ratio of peak height dUTP*/dUTP^0 to Fr=1.0) ([4]; Peak 5): 1.4 | peak height (red fluorescence on the gel) ([4]; Peak 5 (primer)): 32 | context C=(Maximum signal−minimum signal)/(average signal) ([4]; five primers, gel assay with dUTP*): 0.32

Nc1nc2c(ccn2[C@H]2C[C@H](O)[C@@H](COP(=O)(O)OP(=O)(O)OP(=O)(O)O)O2)c(=O)[nH]1 [7-deaza-dGTP, 7-deaza-2′-deoxyguanosine-5′-triphosphate]
Relative Rate in Homopolymer Assay [1, 8]: <1

Nc1nc(=O)n([C@H]2C[C@H](O)[C@@H](COP(=O)(O)OP(=O)(O)OP(=O)(O)O)O2)cc1Br [5-Bromo-dCTP, 5-bromo-2′-deoxycytidine 5′triphosphate]
Relative Rate in Homopolymer Assay [1, 5]: >1

Nc1ncnc2c1ccn2[C@H]1C[C@H](O)[C@@H](COP(=O)(O)OP(=O)(O)OP(=O)(O)O)O1 [7-deaza-dATP, 7-deaza-2′-deoxyadenosine-5′-triphosphate]
Relative Rate in Homopolymer Assay [1, 6]: <1

Cc1cn([C@H]2C[C@H](O)[C@@H](COP(=O)(O)OP(=O)(O)OP(=O)(O)O)O2)c(=O)nc1N [5-Methyl-dCTP, 5-methyl-2′-deoxycytidine 5′triphosphate]
Relative Rate in Homopolymer Assay [1, 5]: >1

O=c1[nH]c(=O)n([C@H]2C[C@H](O)[C@@H](COP(=O)(O)OP(=O)(O)OP(=O)(O)O)O2)cc1I [5-Iodo-dUTP, 5-iodo-2′-deoxyuridine 5′triphosphate]
Relative Rate in Homopolymer Assay [1, 7]: >1

Nc1ncnc2c1c(I)cn2[C@H]1C[C@H](O)[C@@H](COP(=O)(O)OP(=O)(O)OP(=O)(O)O)O1 [7-Iodo-7-deaza-dATP, 7-deaza-7-iodo-2′-deoxyadenosine-5′-triphosphate]
Relative Rate in Homopolymer Assay [1, 6]: >1

O=c1[nH]c(=O)n([C@H]2C[C@H](O)[C@@H](COP(=O)(O)OP(=O)(O)OP(=O)(O)O)O2)cc1Br [5-Bromo-dUTP, 5-bromo-2′-deoxyuridine 5′triphosphate]
Relative Rate in Homopolymer Assay [1, 7]: >1

Nc1nc(=O)n([C@H]2C[C@H](O)[C@@H](COP(=O)(O)OP(=O)(O)OP(=O)(O)O)O2)cc1O [5-Hydroxy-dCTP, 5-hydroxy-2′-deoxycytidine 5′triphosphate]
Relative Rate in Homopolymer Assay [1, 5]: <<1

Nc1nc2c(ncn2[C@H]2C[C@H](O)[C@@H](COP(=O)(O)OP(=O)(O)OP(=O)(O)O)O2)c(=O)[nH]1 [dGTP, deoxyguanosine triphosphate, reference compound]
Relative Rate in Homopolymer Assay [1, 8]: 1

Nc1ncnc2c1ncn2[C@H]1C[C@H](O)[C@@H](COP(=O)(O)OP(=O)(O)OP(=O)(O)O)O1 [dATP, deoxyadenosine triphosphate, reference compound]
Relative Rate in Homopolymer Assay [1, 6]: 1

— patent publication US11326207B2, “Sequencing using non-natural nucleotides” (Ultima Genomics, Inc., priority 2017, dated 2022)
